The source of these data is patent publication US7217710B2, “Substituted pyrazolopyrimidines” (SmithKline Beecham Corporation, priority 2001, dated 2007).

By inhibition is commonly meant the percentage by which the read-out fell short of the control.

Type in all cases: biochemical
For one test, the target named is Recombinant GST-Tie2 (Homo sapiens, UniProt Q02763). Briefly: Tie2 Fluorescence Polarization Kinase Activity Assay (TIE2-FP). The procedure: Tie2 Fluorescence Polarization Kinase Activity Assay: (TIE2-FP)
Recombinant GST-Tie2, sequence (Q02763 23-1124): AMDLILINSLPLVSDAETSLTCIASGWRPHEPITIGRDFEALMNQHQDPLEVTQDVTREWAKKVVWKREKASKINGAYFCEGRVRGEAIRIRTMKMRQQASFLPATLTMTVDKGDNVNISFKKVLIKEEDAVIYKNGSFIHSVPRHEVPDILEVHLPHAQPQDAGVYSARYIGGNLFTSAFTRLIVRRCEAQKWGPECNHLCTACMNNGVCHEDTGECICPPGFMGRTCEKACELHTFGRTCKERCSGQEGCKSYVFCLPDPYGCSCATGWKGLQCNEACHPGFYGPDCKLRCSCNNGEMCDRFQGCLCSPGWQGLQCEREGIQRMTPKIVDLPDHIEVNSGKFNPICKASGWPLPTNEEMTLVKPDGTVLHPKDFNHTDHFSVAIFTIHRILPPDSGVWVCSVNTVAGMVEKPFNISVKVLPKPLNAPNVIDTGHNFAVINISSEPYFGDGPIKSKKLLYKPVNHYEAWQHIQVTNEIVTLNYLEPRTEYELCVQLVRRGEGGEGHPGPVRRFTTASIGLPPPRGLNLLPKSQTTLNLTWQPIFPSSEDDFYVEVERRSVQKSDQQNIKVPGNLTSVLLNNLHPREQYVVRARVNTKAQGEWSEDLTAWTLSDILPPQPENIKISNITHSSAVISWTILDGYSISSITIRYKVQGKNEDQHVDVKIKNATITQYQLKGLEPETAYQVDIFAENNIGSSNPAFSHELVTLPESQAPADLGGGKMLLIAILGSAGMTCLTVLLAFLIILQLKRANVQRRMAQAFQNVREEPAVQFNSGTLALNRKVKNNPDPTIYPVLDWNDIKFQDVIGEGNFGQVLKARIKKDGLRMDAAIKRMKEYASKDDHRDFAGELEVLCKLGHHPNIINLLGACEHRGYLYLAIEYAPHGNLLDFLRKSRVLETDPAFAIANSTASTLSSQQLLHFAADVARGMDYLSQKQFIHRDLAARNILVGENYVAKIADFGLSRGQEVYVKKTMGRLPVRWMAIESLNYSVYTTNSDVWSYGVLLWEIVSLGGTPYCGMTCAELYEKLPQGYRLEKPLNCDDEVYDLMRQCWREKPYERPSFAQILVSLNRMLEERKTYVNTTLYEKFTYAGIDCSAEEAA
Activation of Recombinant Tie2 Activation:
Recombinant GST-Tie2 is activated by incubating the enzyme in 20 mM Tris-HCl, pH 7.5, 12 mM MgCl2, 100 mM NaCl, 20 μM sodium vanidate, 1 mM DTT and 300 μM ATP at room temperature for 2 hours. The activation mixture is then passed through a NAP-25 desalting column (Pharmacia Biotech cat. no. 17-0852-02) to remove the free ATP. The activated enzyme is stored as aliquots at −80° C. in 20 mM Tris-HCl, pH 7.5 and 100 mM NaCl.
The final assay conditions are 50 mM HEPES, pH 7.5, 5% DMSO (when screening compounds), 200 μM ATP, 5 mM MgCl2, 1 mM DTT, 50 μM sodium vanidate, 1 nM activated enzyme, and 200 μM peptide. IC50's of compounds are measured under subsaturating ATP (200 μM) and varying concentrations of activated Tie2 and peptide substrate (RFWKYEFWR-OH; MW 1873 Da, TFA salt). Panvera Anti-phosphotyrosine antibody (Cat#P2840) and PTK Green Tracer (Cat#P2842) are used to detect the phosphorylated peptide. Polarization is measured on a TECAN Polarion in 138-second cycles for 30 minutes at room temperature. IC50's are then determined from the % polarization using normal calculation methods. The IC50 values are converted to pIC50 values, i.e., −log IC50 in Molar concentration.
For orientation: Polarisation of emitted light reports the rotation of a fluorescent probe.

Test [1] has as its target T1, catalytic domain of human VEGFR3 (Homo sapiens, UniProt P35916, H890Q).
T1 construct: made in house; host or cells: Sf9 insect cells (baculovirus, pFastBac1)
Briefly: VEGFR-3 Homogenous Time-Resolved Fluorescence Assay (VEGFR-3-HTRF). Summed up:
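GST-tagged human VEGFR3 catalytic domain (aa 819–1298, Sf9-expressed), pre-autophosphorylated 45 min with ATP/Mg, then 1 nM enzyme with 0.36 μM biotinylated peptide, 75 μM ATP, 10 mM MgCl2, pH 7.2, 1.5 h at room temperature. EDTA stop; HTRF detection; IC50 from hyperbolic fit of % control.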
Background: In TR-FRET formats the signal depends on donor and acceptor labels being close together.

The target in the next test is T2, GST-VEGFR2 (Homo sapiens, UniProt P35968).
T2 construct: GST-VEGFR2, baculovirus expressed recombinant constructs of the intracellular domains; made in house
T2 sequence (P35968 786-1356 limits assumed): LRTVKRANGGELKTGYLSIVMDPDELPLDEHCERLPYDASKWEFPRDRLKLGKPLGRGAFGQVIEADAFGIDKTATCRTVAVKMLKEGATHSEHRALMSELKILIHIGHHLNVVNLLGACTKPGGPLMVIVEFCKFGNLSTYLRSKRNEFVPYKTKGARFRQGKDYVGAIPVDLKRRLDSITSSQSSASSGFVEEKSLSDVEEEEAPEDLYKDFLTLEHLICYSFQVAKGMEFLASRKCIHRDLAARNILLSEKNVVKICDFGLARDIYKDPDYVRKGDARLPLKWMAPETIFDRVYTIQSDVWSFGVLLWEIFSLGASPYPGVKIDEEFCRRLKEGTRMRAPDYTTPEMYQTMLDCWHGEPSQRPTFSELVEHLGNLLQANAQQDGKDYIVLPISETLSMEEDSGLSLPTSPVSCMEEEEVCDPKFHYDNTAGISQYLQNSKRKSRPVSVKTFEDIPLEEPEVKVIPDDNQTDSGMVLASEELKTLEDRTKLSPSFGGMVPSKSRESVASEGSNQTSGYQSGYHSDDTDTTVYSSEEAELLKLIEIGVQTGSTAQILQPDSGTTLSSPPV
The experiment in a line: VEGF-R2 Enzyme Assay (VEGF-E2), LANCE method. As to conditions: for pIC50: read-out: VEGFR2 PIC50 VEGFR-E2 assay.

The target of test [2] is T3, GST-TIE2 (intracellular domains of human TIE2) (Homo sapiens, UniProt Q02763).
T3 construct: made in house
T3 sequence (Q02763 762-1104): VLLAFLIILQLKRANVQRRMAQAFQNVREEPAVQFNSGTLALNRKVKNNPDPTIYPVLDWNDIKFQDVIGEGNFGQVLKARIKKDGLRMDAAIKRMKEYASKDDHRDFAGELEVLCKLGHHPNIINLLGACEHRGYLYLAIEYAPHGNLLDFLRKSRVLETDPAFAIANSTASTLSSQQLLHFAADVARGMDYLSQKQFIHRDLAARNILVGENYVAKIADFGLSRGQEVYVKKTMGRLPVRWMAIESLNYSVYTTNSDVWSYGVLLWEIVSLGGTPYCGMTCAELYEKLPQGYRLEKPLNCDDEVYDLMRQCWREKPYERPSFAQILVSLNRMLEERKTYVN
The experiment in a line: TIE-2 Enzyme Assay (TIE2-E2), LANCE method. The settings on record: read-out: TIE2 PIC50 TIE2-E2 assay. Summed up:
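GST-tagged human TIE2 intracellular domain (aa 762–1104), preactivated 2 h with 80 μM ATP, then 5 nM enzyme run 2 h at room temperature with 1 μM biotinylated D1–15 peptide, 80 μM ATP, HEPES pH 7.4, 2.4% DMSO. Phosphotyrosine detected by LANCE (Eu anti-pTyr/streptavidin-APC) after EDTA stop; IC50 by nonlinear regression, reported as pIC50.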

pIC50: −log10 of the molar value. Bounds are passed on as bounds.

T1 sequence (P35916 with tags, fused parts or gaps isoform P35916-1 H890Q): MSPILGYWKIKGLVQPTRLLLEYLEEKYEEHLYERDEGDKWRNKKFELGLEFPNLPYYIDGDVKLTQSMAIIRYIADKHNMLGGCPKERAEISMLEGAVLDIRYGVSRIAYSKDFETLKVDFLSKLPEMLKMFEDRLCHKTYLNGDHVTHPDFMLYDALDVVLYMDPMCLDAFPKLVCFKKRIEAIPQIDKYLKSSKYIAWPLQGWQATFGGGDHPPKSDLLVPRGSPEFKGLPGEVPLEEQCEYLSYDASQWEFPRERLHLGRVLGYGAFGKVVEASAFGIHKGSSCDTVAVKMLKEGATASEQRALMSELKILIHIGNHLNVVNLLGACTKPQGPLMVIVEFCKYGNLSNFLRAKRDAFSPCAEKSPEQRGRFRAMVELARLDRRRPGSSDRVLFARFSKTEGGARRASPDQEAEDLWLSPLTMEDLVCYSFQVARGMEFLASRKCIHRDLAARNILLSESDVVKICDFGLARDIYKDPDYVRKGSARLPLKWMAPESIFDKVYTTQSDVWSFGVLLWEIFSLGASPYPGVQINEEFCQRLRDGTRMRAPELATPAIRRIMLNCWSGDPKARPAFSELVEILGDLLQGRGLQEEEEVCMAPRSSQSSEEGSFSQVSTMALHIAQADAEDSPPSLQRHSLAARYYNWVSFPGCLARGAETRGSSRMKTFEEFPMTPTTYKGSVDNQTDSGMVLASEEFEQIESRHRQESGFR

On to `O=C(Nc1ccc(-c2n[nH]c3ncnc(N(CCN4CCOCC4)Cc4ccccc4)c23)cc1)Nc1cc(C(F)(F)F)ccc1F` [Example 50, 1-{4-[Benzyl-(2-morpholin-4-yl-ethylamino)-1H-pyrazolo[3,4-d]pyrimidin-3-yl]-phenyl}-3-(fluoro-trifluoromethyl-phenyl)-urea], for which the pIC50 on Recombinant GST-Tie2 is greater than 7.00. In test [1], the “VEGFR3 PIC50 VEGFR-3-HTRF assay” value is reported as “+ (+ = PIC50 = 5.00 to less than 6.00)”. Further, the “VEGFR2 PIC50 VEGFR-E2 assay” value on GST-VEGFR2 is recorded as “++ (++ = PIC50 = 6.00 to less than 7.00)”.

Take `Cn1nc(-c2ccc(NS(=O)(=O)c3cccc(C(F)(F)F)c3)c(C(F)(F)F)c2)c2cnc(NCCN3CCOCC3)nc21` [Example 157]: on Recombinant GST-Tie2, the inhibition at 10 µM was found to be 0%. Moreover, the pIC50 at GST-VEGFR2 was less than 5.00.

As for `Cc1cc(-c2nn(C)c3nc(NCCN4CCOCC4)ncc23)ccc1NS(=O)(=O)c1cccc(Cl)c1Cl` [Example 151], the inhibition at 10 µM at Recombinant GST-Tie2 turned out to be 41%. Besides, the pIC50 at GST-VEGFR2 was less than 5.00.

With `CCN(CC)CCCCNc1ncnc2c1c(-c1ccc(NC(=O)Nc3cc(C(F)(F)F)ccc3F)cc1)nn2C` [Example 34, 1-{4-[(4-Diethylamino-butylamino)-methyl-1H-pyrazolo[3,4-d]pyrimidin-3-yl]-phenyl}-3-(2-fluoro-5-trifluoromethyl-phenyl)-urea], on Recombinant GST-Tie2, the pIC50 was greater than 7.00. Further, the “VEGFR3 PIC50 VEGFR-3-HTRF assay” value in test [1] is “+ (+ = PIC50 = 5.00 to less than 6.00)”. Besides, on GST-VEGFR2, the “VEGFR2 PIC50 VEGFR-E2 assay” value is “+ (+ = PIC50 = 5.00 to less than 6.00)”.

On to “1-{4-[Benzyl-(2-morpholin-4-yl-ethylamino)-1H-pyrazolo[3,4-d]pyrimidin-3-yl]-phenyl}-3-(fluoro-trifluoromethyl-phenyl)-thiourea [Example 51]”, for which the “TIE2 % inhibition (at 10 μM) TIE2-FP assay” value at Recombinant GST-Tie2 (at 10 μM) was 0%. The “VEGFR3 PIC50 VEGFR-3-HTRF assay” value in test [1] is “+ (+ = PIC50 = 5.00 to less than 6.00)”. The “VEGFR2 PIC50 VEGFR-E2 assay” value at GST-VEGFR2 is listed as “+ (+ = PIC50 = 5.00 to less than 6.00)”.

On to `Cn1nc(-c2ccc(NC(=O)Nc3cc(C(F)(F)F)ccc3F)cc2)c2cnc(NCCO)nc21` [Example 29, 1-(2-Fluoro-5-trifluoromethyl-phenyl)-3-{4-[(2-hydroxy-ethylamino)-methyl-1H-pyrazolo[3,4-d]pyrimidin-3-yl]-phenyl}-urea], for which the pIC50 at Recombinant GST-Tie2 was 6.52 to 7.00.

As for `CC(=O)c1cccc(NC(=O)Nc2ccc(-c3nn(C)c4nc(NCCN5CCOCC5)ncc34)cc2C)c1` [Example 163], the inhibition at 10 µM on Recombinant GST-Tie2 was 25%. Further, the pIC50 in test [2] is less than 5.00.

For the compound `Cn1nc(-c2ccc(NS(=O)(=O)c3ccc(Cl)s3)cc2)c2cnc(NCCN3CCOCC3)nc21` [Example 150], the inhibition at 10 µM on Recombinant GST-Tie2 is 41%.

As to `Cn1nc(-c2ccc(NS(=O)(=O)c3ccccc3F)cc2)c2cnc(NCCN3CCOCC3)nc21` [Example 148], on Recombinant GST-Tie2, the inhibition at 10 µM is 36%.

With `CCc1cccc(NC(=O)Nc2ccc(-c3nn(Cc4ccccc4)c4nc(NCCN5CCOCC5)ncc34)cc2)c1` [Example 52, 1-{4-[Benzyl-(2-morpholin-4-yl-ethylamino)-1H-pyrazolo[3,4-d]pyrimidin-3-yl]-phenyl}-3-(ethyl-phenyl)-urea], on Recombinant GST-Tie2, the pIC50 was 6.52 to 7.00. For the same compound, in test [1], the “VEGFR3 PIC50 VEGFR-3-HTRF assay” value is “+ (+ = PIC50 = 5.00 to less than 6.00)”. In addition, the “VEGFR2 PIC50 VEGFR-E2 assay” value at GST-VEGFR2 is “+ (+ = PIC50 = 5.00 to less than 6.00)”.

As for `CCN(CC)CCNc1ncnc2c1c(-c1ccc(NC(=O)Nc3cc(C(F)(F)F)ccc3F)cc1)nn2C` [Example 33, 1-{4-[(2-Diethylamino-ethylamino)-methyl-1H-pyrazolo[3,4-d]pyrimidin-3-yl]-phenyl}-3-(2-fluoro-5-trifluoromethyl-phenyl)-urea], the pIC50 at Recombinant GST-Tie2 is no more than 6.52.

With `Cc1cc(-c2nn(C)c3nc(NCCN4CCOCC4)ncc23)ccc1NS(=O)(=O)c1cc(Cl)sc1Cl` [Example 155], on Recombinant GST-Tie2, the inhibition at 10 µM came to 23%.
